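Where inhibition never reached the appropriate level, the endpoint shown equals the highest concentration tested. Otherwise, values were interpolated linearly from a five-concentration, 48-hour dose response in 96-well plates. At the GI50, growth is halved. TGI marks complete inhibition of growth.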
Experiments:
Assay in all cases: inhibition of tumour cell growth, NCI panel, 48 h
[1] = tested on: SF-539 CNS
[2] = tested on: MCF7 breast
[3] = tested on: SF-268 CNS
[4] = tested on: IGROV1 ovarian
[5] = tested on: COLO 205 colon
[6] = tested on: RPMI-8226 leukemia
[7] = tested on: HL-60(TB) leukemia
[8] = tested on: HCT-116 colon
[9] = tested on: RXF 393 renal
[10] = tested on: OVCAR-3 ovarian

| SMILES | GI50 [1] [µM] | GI50 [2] [µM] | TGI [2] [µM] | GI50 [3] [µM] | GI50 [4] [µM] | GI50 [5] [µM] | TGI [5] [µM] | GI50 [6] [µM] | TGI [6] [µM] | GI50 [7] [µM] | TGI [7] [µM] | GI50 [8] [µM] | TGI [8] [µM] | GI50 [9] [µM] | TGI [9] [µM] | GI50 [10] [µM] | TGI [10] [µM] | TGI [1] [µM] | TGI [3] [µM] | TGI [4] [µM] |
| --- | --- | --- | --- | --- | --- | --- | --- | --- | --- | --- | --- | --- | --- | --- | --- | --- | --- | --- | --- | --- |
| CCC(=C/[C@H](C)C/C=C/C(C)=C/[C@@H](C)C(=O)[C@@H](C)[C@H](O)[C@@H](C)CC)/C=C/[C@@H]1OC(=O)C=C[C@H]1C | < 0.01 | < 0.01 | 1.23 | < 0.01 | < 0.01 | < 0.01 | < 0.0166 | < 0.01 | < 0.01 | < 0.01 | < 0.01 | < 0.01 | < 0.01 | < 0.01 | < 0.01 | < 0.01 | < 0.01 | – | – | – |
| CN(Cc1ccccc1)c1ccc(CO)c(Cl)c1 | 61.3 | 1.49 | 40.3 | 47.2 | 0.467 | 7.19 | 22.5 | 15.4 | > 96.2 | 17.4 | 80 | 0.533 | 15.1 | 13.1 | > 60.9 | 3.36 | 12.9 | > 100 | > 100 | 3.01 |
| S=C(Nc1ccc(-c2nc3ccccc3[nH]2)cc1)Nc1ccc(-c2nc3ccccc3[nH]2)cc1 | > 100 | 28.8 | > 100 | > 100 | 64.1 | > 100 | > 100 | 71.8 | > 100 | > 100 | > 100 | 55.4 | > 100 | > 100 | > 100 | 48.9 | > 100 | > 100 | > 100 | > 100 |
| O=Nc1ccc(NO)c2ccccc12 | 17.1 | 10.5 | 31.3 | 13.8 | 3.62 | 14.7 | 29.3 | 13.3 | 56.2 | 3.14 | 7.56 | 3.15 | 12.7 | 11.8 | 24.2 | 2.37 | 12 | 31.1 | 27.8 | 16.4 |
| [N-]=[N+]=NCCCCCC(=O)OC(C(=O)c1ccccc1)c1cccc(OCC(=O)NCCOCCOCCNC(=O)CCCC[C@@H]2SC[C@@H]3NC(=O)N[C@@H]32)c1 (stereo partly drawn) | 25.3 | 51.3 | > 100 | > 100 | > 100 | > 100 | > 100 | 29.3 | > 100 | 27.8 | > 100 | 67.2 | > 100 | 56.3 | > 100 | – | – | 72.7 | > 100 | > 100 |
| CCN(CC)CC(O)CNc1c2ccc([N+](=O)[O-])cc2nc2cc(OC)c(OC)cc12 (stereo not drawn) | 0.35 | 0.0534 | 0.761 | 0.293 | 0.305 | – | – | 0.359 | 2.14 | 2.06 | 6.81 | 0.2 | 0.636 | 0.469 | 1.86 | 0.207 | 0.543 | 1.45 | 1.34 | 1.51 |

Reference: PubChem BioAssay (NCI)
